Source: patent US8569274B2, “Progesterone antagonist and selective progesterone modulator in the treatment of excessive uterine bleeding” (Preglem S.A., priority 2007, dated 2013)

Columns and labels:
Type in all cases: in vivo
uterine bleeding [1] = experiment: Case: person with Acute Lymphotic Leukemia, thrombocytopenia and uterine bleeding, oral treatment
Method: A post-pubertal person is consulting for fever, infections, uterine bleeding, petechia and dyspnea. Blood test identifies anemia (Hb 7.8 g/dL), normal leucocyte count (WBC 8657 cells/μL) and thrombocytopenia (platelets: 13.476 cells/mm^3). […] A diagnosis of Acute Lymphotic Leukemia is confirmed. The patient undergoes blood and platelet transfusion to correct for anemia and coagulation disorder. On the same day, they start taking orally 10 mg/day of CDB-2914. […] On that day, Hb is 9.9 g/dL; WBC 6345 cells/μL; and platelet count is 42 000 cells/mm^3. They continue taking orally 10 mg/day of CDB2914 for controlling abnormal uterine bleeding. […] After 3 months, they achieve remission, Hb is 13.1 g/dL; leucocyte count is normal, platelet count is 176 000 cells/mm^3. Bone marrow biopsy confirmed normalization.

uterine bleeding [2] = experiment: Case: person with stage III Hodgkin disease, prevention of uterine bleeding during chemotherapy and irradiation; conditions: 10 mg/day orally, started before chemotherapy (MOPP) and irradiation
Excerpt: A person is consulting for pneumonia. They report a recent history of night sweats and weight loss. […] The diagnosis is a stage III of Hodgkin disease. Their condition indicates chemotherapy (MOPP) and extended irradiation. The main risk of the proposed therapy is bone marrow suppression. This is life-threatening by exposing the patient to severe infection and septicemia, but it is also associated with severe thrombopenia and diffuse bleeding including uterine bleeding. In order to prevent uterine bleeding, before initiating specific treatment for their Hodgkin disease, they are orally administered 10 mg/day of CDB-2914. Following initiation of chemotherapy and irradiation, severe bone marrow suppression is recorded and the patient is admitted in aseptic unit. […] CBD2914 administration is maintained as long as coagulation parameters are not normalized.

uterine bleeding [3] = experiment: Case: person on anticoagulant therapy with menorrhagia, oral treatment
Method: A moderate smoker with a BMI at 32 is treated with anticoagulant therapy for an episode of pulmonary embolism resulting from a deep venous thrombosis in a leg. Despite effort to adapt their anticoagulation therapy, their menstruations are heavy (menorrhagia) and last for up to two weeks. Their Hb is at 9.2 gr/dL. […] Their thrombo-embolic condition precludes any therapy with oestrogens or progestins. Given, the absence of negative metabolic and pro-thrombotic effect of SPRM, they are orally administered 25 mg/day of Proellex® (CDB-4124). […] Their Hb progressively returned to normal (>12 gd/dL).

Structure (SMILES) | uterine bleeding during continued treatment (uterine bleeding [1]; 10 mg/day orally, 3 months, several episodes of thrombopenia and chemotherapy cycles, except for a few spotting) | time following initiation of treatment until uterine bleeding is stopped (uterine bleeding [1]; 10 mg/day orally, blood and platelet transfusion on the same day) | menstrual bleeding after treatment is stopped (uterine bleeding [1]; after 3 months, remission) | uterine bleeding despite severe thrombopenia (uterine bleeding [2]) | uterine bleeding after start of treatment (uterine bleeding [3]; 25 mg/day orally) | uterine bleeding during the 12 weeks of anticoagulation therapy (uterine bleeding [3]; 25 mg/day orally) | Hb (uterine bleeding [3]; 25 mg/day orally, 9.2 gr/dL before treatment, progressively returned to normal) | menstruations after treatment is stopped (uterine bleeding [3]; after anticoagulation therapy is stopped)
CC(=O)O[C@]1(C(C)=O)CC[C@H]2[C@@H]3CCC4=CC(=O)CCC4=C3[C@@H](c3ccc(N(C)C)cc3)C[C@@]21C [CDB-2914] | remains in amenorrhea | 5 days | regular, normal menstrual bleeding are restored | remains in amenorrhea | – | – | – | –
COCC(=O)[C@@]1(OC(C)=O)CC[C@H]2[C@@H]3CCC4=CC(=O)CCC4=C3[C@@H](c3ccc(N(C)C)cc3)C[C@@]21C [Proellex, 17[alpha]-acetoxy-21-methoxy-11β-[4-N,N-dimethylaminophenyl]-19-norpregna-4,9-diene-3,20-dione] | – | – | – | – | stopped after a few days | remain amenorrheic | > 12 gd/dL | resumed normal menstruations
